Measured values from US20240226245A9, “ZIP-IN TECHNOLOGY FOR ANTIVIRAL THERAPEUTIC NANOFORMULATIONS” (PAROLE LABORATORIES INC., priority 2022, published 2024).

Experiment: Net charge vs pH of the payload molecule
Assay type: physicochemical
From the text: Step 2: This is an essential step. For short payload molecules with a single ionizable group is enough to know pKa, so the useful pH range is pH>pKa+1 for acidic compounds and pH<pKa−1 for basic compounds. For payloads that are macromolecules with multiple different ionizable groups, such as peptides and proteins, must be measured or calculated net charge vs pH dependence for the full pH range (0-14). Provided three examples, refer to FIGS. 1 to 3.
For the vancomycin example, there are two ranges of pH where it is ionized (FIG. 1), one is pH 1 and below and the second range is pH 8 and up. Vancomycin at pH ˜1 acquires net charge +1, however at pH 12, the net charge is −4.5. Therefore, vancomycin must be encapsulated at pH 12 by the disclosed method as a “negatively charged payload”. Note, in the range of pH from 3 to 7.5 it is impossible to encapsulate vancomycin because it has no charge.
Both Cas9 and Cas13 endonucleases have to be encapsulated at pH<4 as “positively charged payloads”.

Q: Which results are given for `CN[C@H](CC(C)C)C(=O)N[C@H]1C(=O)N[C@@H](CC(N)=O)C(=O)N[C@H]2C(=O)N[C@H]3C(=O)N[C@H](C(=O)N[C@H](C(=O)O)c4cc(O)cc(O)c4-c4cc3ccc4O)[C@H](O)c3ccc(c(Cl)c3)Oc3cc2cc(c3O[C@@H]2O[C@H](CO)[C@@H](O)[C@H](O)[C@H]2O[C@H]2C[C@](C)(N)[C@H](O)[C@H](C)O2)Oc2ccc(cc2Cl)[C@H]1O` [Vancomycin, vancomycin]?
A: net charge (pH 12 (FIG. 1)): −4.5; net charge (pH from 3 to 7.5 (FIG. 1)): no charge; net charge (pH ˜1 (FIG. 1)): +1
